Results published in US7312188B2, “Peptide derivatives having β-secretase inhibitory activity” (priority 2003, dated 2007).
Numbered stars: 1 amine (or outer) side, 2 acyl side, 3 side chain; on linkers, the order of the positions; unused ones are H or OH. Square brackets hold non-standard residues; d marks the D form. Peptide text beside a SMILES is read from it. * marks the point of attachment. β3hPhe(2R-OH) = O=C([C@H](O)[C@H](Cc1ccccc1)N[*:1])[*:2]; X2 = O=C([C@H](O)[C@H](CSc1ccccc1)N[*:1])[*:2]; X3 = CC(C)C[C@H](N[*:1])[C@@H](O)C(=O)[*:2]; Oxalyl = O=C(C(=O)[*:2])[*:1]; 4Amb = NCc1ccc(C(=O)O)cc1; X1 = O=C(c1ccc(O)c(O)c1)*; 3Abz = Nc1cccc(C(=O)O)c1; 4Abz = Nc1ccc(C(=O)O)cc1; 2Abz = Nc1ccccc1C(=O)O; Dap = NC[C@H](N)C(=O)O; Aib = CC(C)(N)C(=O)O

These molecules were tested against T1, recombinant human BACE-1 (rhBACE-1) (Homo sapiens, UniProt P56817) (assay: BACE1 inhibitory activity, reverse phase HPLC quantitation of N-terminal fragment of fluorogenic substrate). Details: 1 μL of inhibitor solution in DMSO (100 μM) in 50 μL reaction; MES buffer pH 5.0; 37° C., 60 minutes.
T1 construct: expressed as only an extracellular region (amino acid 1-460 residues) of recombinant human β-secretase; His tag (C); purchased R&D systems (Minneapolis, Minn.); host or cells: murine myeloma cell line NS0
T1 sequence (P56817 22-460 limits assumed): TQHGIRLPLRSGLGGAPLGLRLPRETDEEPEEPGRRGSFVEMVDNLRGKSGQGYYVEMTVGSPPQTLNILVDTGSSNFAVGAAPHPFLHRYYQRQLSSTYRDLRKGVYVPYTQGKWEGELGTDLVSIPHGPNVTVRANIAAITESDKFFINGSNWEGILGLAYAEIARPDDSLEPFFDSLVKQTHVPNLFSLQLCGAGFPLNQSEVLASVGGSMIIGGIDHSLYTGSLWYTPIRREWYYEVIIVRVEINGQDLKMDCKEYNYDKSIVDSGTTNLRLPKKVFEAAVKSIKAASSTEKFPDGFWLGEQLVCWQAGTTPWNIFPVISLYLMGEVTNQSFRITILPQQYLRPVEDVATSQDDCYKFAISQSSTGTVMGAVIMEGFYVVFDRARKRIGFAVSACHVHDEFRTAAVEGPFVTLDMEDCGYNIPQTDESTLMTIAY
Type: biochemical
Summary of the method: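 rhBACE-1 ectodomain (residues 1-460, C-terminal His tag, NS0-expressed) in MES buffer pH 5.0 with inhibitor (diluted in DMSO, 100 μM solution) and MCA/DNP fluorogenic peptide (250 μM stock), 60 min at 37 °C, TCA stop. N-terminal fragment quantified by reverse-phase HPLC fluorescence (Ex 328/Em 393 nm); inhibition % derived.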

Molecule | inhibition at 2 µM [%] | Activity (BACE1 inhibition %) [%] | inhibition at 100 µM (stock) [%]
CC(C)[C@H](NC(=O)[C@@H](N)CNC(=O)c1nnn[nH]1)C(=O)N[C@@H](CC1CCCCC1)C(=O)N[C@@H](Cc1ccccc1)[C@@H](O)C(=O)Nc1cccc(C(=O)O)c1 [Example 137] | 99.5 |  | 
CNC(=O)c1cc(NC(=O)[C@H](O)[C@H](Cc2ccccc2)NC(=O)[C@H](CC(C)C)NC(=O)[C@@H](NC(=O)[C@@H](N)CCC(=O)O)C(C)C)cc(C(=O)NC)c1 [Example 180] | 51.4 |  | 
CC(C)C[C@H](NC(=O)[C@@H](NC(=O)[C@@H](N)CCC(=O)O)C(C)C)C(=O)N[C@@H](Cc1ccccc1)[C@@H](O)C(=O)N[C@@H](CC(=O)O)C(=O)NC(C)(C)C(=O)N[C@@H](CCC(=O)O)C(=O)O [Example 91] (H-EVL[β3hPhe(2R-OH)]D[Aib]E-OH) | 68.9 |  | 
CC(C)C[C@H](NC(=O)[C@@H](NC(=O)[C@@H](N)CNC(=O)c1cc(O)cc(O)c1)C(C)C)C(=O)N[C@@H](Cc1ccccc1)[C@@H](O)C(=O)Nc1cccc(C(=O)O)c1 [Example 148] |  |  | 93.8
CC(C)C[C@H](NC(=O)[C@@H](NC(=O)[C@@H](N)CCC(=O)O)C(C)C)C(=O)N[C@@H](Cc1ccccc1)[C@@H](O)C(=O)N[C@@H](CC(=O)O)C(=O)Nc1ccc(C(=O)O)cc1 [Example 76] (H-EVL[β3hPhe(2R-OH)]D[4Abz]-OH) | 89.5 |  | 
CC(C)C[C@H](NC(=O)[C@@H](NC(=O)[C@@H](N)CCC(=O)O)C(C)C)C(=O)N[C@@H](Cc1ccccc1)[C@@H](O)C(=O)N[C@@H](CC(=O)O)C(=O)Nc1ccccc1C(=O)O [Example 78] (H-EVL[β3hPhe(2R-OH)]D[2Abz]-OH) |  |  | 85.8
CC(C)C[C@H](NC(=O)[C@@H](NC(=O)[C@@H](N)CNC(=O)C(=O)O)C(C)C)C(=O)N[C@@H](Cc1ccccc1)[C@@H](O)C(=O)N[C@@H](CC(=O)O)C(=O)Nc1ccc(C(=O)O)cc1 [Example 71] (H-[Dap](Oxalyl)VL[β3hPhe(2R-OH)]D[4Abz]-OH) | 97.9 |  | 
CC(C)C[C@H](NC(=O)[C@@H](NC(=O)[C@@H](N)CNC(=O)c1ccc(O)c(O)c1)C(C)C)C(=O)N[C@@H](Cc1ccccc1)[C@@H](O)C(=O)N[C@@H](CC(=O)O)C(=O)N[C@@H](C)C(=O)N[C@@H](CCC(=O)O)C(=O)O [Example 133] (H-[Dap](X1)VL[β3hPhe(2R-OH)]DAE-OH) |  |  | 71.5
CC(C)C[C@H](NC(=O)[C@@H](NC(=O)[C@H](CN)NC(=O)C(=O)O)C(C)C)C(=O)N[C@@H](Cc1ccccc1)[C@@H](O)C(=O)Nc1ccc(C(=O)O)cc1 [Example 74] |  |  | 90.5
CC(C)C[C@H](NC(=O)[C@@H](NC(=O)[C@@H](N)CCC(=O)O)C(C)(C)C)C(=O)N[C@@H](Cc1ccccc1)[C@@H](O)C(=O)Nc1cccc(C(=O)O)c1 [Example 151] | 57 |  | 
CC(C)C[C@H](NC(=O)[C@@H](NC(=O)[C@@H](N)CCC(=O)O)C(C)C)C(=O)N[C@@H](Cc1ccccc1)[C@@H](O)C(=O)N[C@@H](CC(=O)O)C(=O)N[C@@H](C)C(=O)Nc1ccc(C(=O)O)cc1 [Example 93] (H-EVL[β3hPhe(2R-OH)]DA[4Abz]-OH) | 64.8 |  | 
H-Glu-Val-Leu-Pns-Ala-Phe-Glu-Phe-OH (H-EVL[β3hPhe(2R-OH)]AFEF-OH; SMILES CC(C)C[C@H](NC(=O)[C@@H](NC(=O)[C@@H](N)CCC(=O)O)C(C)C)C(=O)N[C@@H](Cc1ccccc1)[C@@H](O)C(=O)N[C@@H](C)C(=O)N[C@@H](Cc1ccccc1)C(=O)N[C@@H](CCC(=O)O)C(=O)N[C@@H](Cc1ccccc1)C(=O)O) [Example 26] |  | 60.23 | 

Further lines, with some results ahead:

inhibition at 2 µM [%] | Activity (BACE1 inhibition %) [%] | Molecule | inhibition at 100 µM (stock) [%]
54.6 |  | CC(C)C[C@H](NC(=O)[C@@H](NC(=O)[C@@H](N)CCC(=O)O)C(C)C)C(=O)N[C@@H](Cc1ccccc1)[C@@H](O)C(=O)N[C@@H](CC(=O)O)C(=O)NCc1ccc(C(=O)O)cc1 [Example 103] (H-EVL[β3hPhe(2R-OH)]D[4Amb]-OH) | 
69 |  | CC(C)C[C@H](NC(=O)[C@@H](NC(=O)[C@@H](N)CCC(=O)O)C(C)C)C(=O)N[C@@H](CSc1ccccc1)[C@@H](O)C(=O)N[C@@H](CC(=O)O)C(=O)O [Example 90] (H-EVL[X2]D-OH) | 
 | 53.71 | H-Glu-Val-Leu-Pns-Ala-Ala-Glu-Phe-OH (H-EVL[β3hPhe(2R-OH)]AAEF-OH; SMILES CC(C)C[C@H](NC(=O)[C@@H](NC(=O)[C@@H](N)CCC(=O)O)C(C)C)C(=O)N[C@@H](Cc1ccccc1)[C@@H](O)C(=O)N[C@@H](C)C(=O)N[C@@H](C)C(=O)N[C@@H](CCC(=O)O)C(=O)N[C@@H](Cc1ccccc1)C(=O)O) [Example 13] | 
59.1 |  | CC(C)C[C@H](NC(=O)[C@@H](NC(=O)[C@@H](N)CCC(=O)O)C(C)C)C(=O)N[C@@H](CC(C)C)[C@@H](O)C(=O)N[C@@H](CC(=O)O)C(=O)N[C@@H](C)C(=O)N[C@@H](CCC(=O)O)C(=O)N[C@@H](Cc1ccccc1)C(=O)O [Example 97] (H-EVL[X3]DAEF-OH) | 
59.2 |  | CC(C)C[C@H](NC(=O)[C@@H](NC(=O)[C@@H](N)CCC(=O)O)C(C)C)C(=O)N[C@@H](Cc1ccccc1)[C@@H](O)C(=O)N[C@H](C(=O)N[C@@H](C)C(=O)N[C@@H](CCC(=O)O)C(=O)N[C@@H](Cc1ccccc1)C(=O)O)C(C)C [Example 96] (H-EVL[β3hPhe(2R-OH)]VAEF-OH) | 
61.6 |  | CC(C)C[C@H](NC(=O)[C@@H](NC(=O)[C@@H](N)CCC(=O)O)c1ccccc1)C(=O)N[C@@H](Cc1ccccc1)[C@@H](O)C(=O)Nc1cccc(C(=O)O)c1 [Example 169] | 
 | 71.60 | H-Glu-Val-Leu-Pns-Asp-Ala-Glu-OH [Example 32] | 
60 |  | CC(C)[C@H](NC(=O)[C@@H](N)CCC(=O)O)C(=O)N[C@@H](Cc1ccc(Cl)cc1)C(=O)N[C@@H](Cc1ccccc1)[C@@H](O)C(=O)Nc1cccc(C(=O)O)c1 [Example 168] | 
66.1 |  | CCOC(=O)COc1c(Cl)cc(NC(=O)[C@H](O)[C@H](Cc2ccccc2)NC(=O)[C@H](CC(C)C)NC(=O)[C@@H](NC(=O)[C@@H](N)CCC(=O)O)C(C)C)cc1Cl [Example 158] | 
 | 56.72 | H-Glu-Val-Leu-Pns-Gly-Ala-Glu-Phe-OH (H-EVL[β3hPhe(2R-OH)]GAEF-OH; SMILES CC(C)C[C@H](NC(=O)[C@@H](NC(=O)[C@@H](N)CCC(=O)O)C(C)C)C(=O)N[C@@H](Cc1ccccc1)[C@@H](O)C(=O)NCC(=O)N[C@@H](C)C(=O)N[C@@H](CCC(=O)O)C(=O)N[C@@H](Cc1ccccc1)C(=O)O) [Example 42] | 
65.4 |  | CC(C)C[C@H](NC(=O)[C@@H](NC(=O)[C@@H](N)CCC(=O)O)C(C)C)C(=O)N[C@@H](Cc1ccccc1)[C@@H](O)C(=O)N[C@@H](CC(=O)O)C(=O)N[C@@H](C)C(=O)Nc1cccc(C(=O)O)c1 [Example 92] (H-EVL[β3hPhe(2R-OH)]DA[3Abz]-OH) | 
80.1 |  | CC(C)C[C@H](NC(=O)[C@@H](NC(=O)[C@@H](N)CCC(=O)O)C(C)C)C(=O)N[C@@H](Cc1ccccc1)[C@@H](O)C(=O)Nc1cc(Cl)c(O)c(Cl)c1 [Example 149] | 
68.1 |  | CCSC[C@H](NC(=O)[C@@H](NC(=O)[C@@H](N)CCC(=O)O)C(C)C)C(=O)N[C@@H](Cc1ccccc1)[C@@H](O)C(=O)Nc1cccc(C(=O)O)c1 [Example 132] | 
